{"source": "patent US20190209472A1", "about": "“FORMULATIONS FOR DERMAL DELIVERY OF POLYMER CONJUGATES OF INDOLOCARBAZOLE COMPOUNDS WITH REDUCED EXPOSURE” (Sienna Biopharmaceuticals, Inc., priority 2017, published 2019)", "key": {"[1]": {"tested_on": "lesions of psoriasis vulgaris", "from_the_text": "This was a Phase I, single-center, randomized, double-blind, placebo-controlled study in male and female patients with stable psoriasis vulgaris aged >18 and <71 years. Sixteen patients were enrolled in 2 treatment groups. […] Patients attended a screening visit within 21 days prior to Day 1. Patients were then admitted to the CPU in the afternoon of Day −1 and remained resident in the CPU until the morning of Day 8. Patients attended a follow-up visit 7 to 10 days after the last treatment administration on Day 7.\nThe ointment was applied by the CPU staff, using a spatula and finger cot.\nPhysicians Global Assessment (PGA) scores were assessed at screening, Day 1, Day 7 and at follow-up. Digital photographs of the application sites were also taken on admission to the CPU, Day 7 and at follow-up."}, "TrkA kinase": {"target": "TrkA kinase (Homo sapiens, UniProt P04629)", "sequence (P04629 33-796)": "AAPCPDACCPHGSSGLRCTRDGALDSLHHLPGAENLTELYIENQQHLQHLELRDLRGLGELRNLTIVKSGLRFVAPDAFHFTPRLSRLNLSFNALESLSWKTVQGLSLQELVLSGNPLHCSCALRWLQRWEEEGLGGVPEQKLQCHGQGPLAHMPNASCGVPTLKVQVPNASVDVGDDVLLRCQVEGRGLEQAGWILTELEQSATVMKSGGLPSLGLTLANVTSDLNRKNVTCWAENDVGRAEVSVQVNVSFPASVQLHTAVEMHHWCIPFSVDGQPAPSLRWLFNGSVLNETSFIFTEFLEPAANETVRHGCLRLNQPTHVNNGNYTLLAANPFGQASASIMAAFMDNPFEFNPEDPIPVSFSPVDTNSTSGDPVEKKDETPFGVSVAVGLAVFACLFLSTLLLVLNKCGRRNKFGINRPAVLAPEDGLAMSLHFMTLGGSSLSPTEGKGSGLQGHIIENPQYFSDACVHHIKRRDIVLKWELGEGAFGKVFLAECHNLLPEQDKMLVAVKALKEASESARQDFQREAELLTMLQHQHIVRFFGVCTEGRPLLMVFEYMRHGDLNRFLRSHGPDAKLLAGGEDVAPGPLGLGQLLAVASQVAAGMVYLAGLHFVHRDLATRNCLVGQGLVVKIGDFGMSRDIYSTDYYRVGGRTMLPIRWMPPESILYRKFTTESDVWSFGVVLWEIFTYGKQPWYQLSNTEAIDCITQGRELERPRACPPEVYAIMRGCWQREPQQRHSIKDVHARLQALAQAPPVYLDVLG"}}, "note": "Like-named read-outs stand apart in the source and are kept apart here.", "data": [{"substance": "(9S, 10R, 12R)-10-(3′-mPEG2000-1′,3′-oxazolidine-2′,4′-dione)-2,3,9,10,11,12-hexahydro-9-methyl-1-oxo-9,12-epoxy-1H-diindolo[1,2,3-fg:3′,2′,1′-k,l]pyrrolo[3,4-i][1,6] benzodiazocine] [CT327]", "values": [{"measurement": "PGA Scaling 3: MODERATE, COARSE SCALE PREDOMINATES, patients (%)", "setting": "[1]; Plaque 2, DAY 1, N = 12", "result": "(8.3%)"}, {"measurement": "PGA Scaling 4: MARKED, THICK, NON-TENACIOUS SCALE DOMINATES, patients (%)", "setting": "[1]; Plaque 2, DAY 1, N = 12", "result": "(8.3%)"}, {"measurement": "Physician Static Global Score 2: MILD, patients (%)", "setting": "[1]; Plaque 2, DAY 1, N = 12", "result": "(25.0%)"}, {"measurement": "Physician Static Global Score 3: MODERATE, patients (%)", "setting": "[1]; Plaque 2, DAY 1, N = 12", "result": "(8.3%)"}, {"measurement": "PGA Erythma 2: LIGHT RED COLOURATION, patients (%)", "setting": "[1]; Plaque 2, DAY 7, N = 12", "result": "(25.0%)"}, {"measurement": "PGA Erythma 3: MODERATE RED COLOURATION, patients (%)", "setting": "[1]; Plaque 2, DAY 7, N = 12", "result": "(8.3%)"}, {"measurement": "PGA Induration 1: MINIMAL PLAQUE ELEVATION, =0.25 MM, patients (%)", "setting": "[1]; Plaque 2, DAY 7, N = 12", "result": "(25.0%)"}, {"measurement": "PGA Induration 2: MILD PLAQUE ELEVATION, =0.5 MM, patients (%)", "setting": "[1]; Plaque 2, DAY 7, N = 12", "result": "(8.3%)"}, {"measurement": "PGA Scaling 1: MINIMAL, OCCASIONAL FINE SCALE OVER LESS THAN 5% OF THE LESION, patients (%)", "setting": "[1]; Plaque 2, DAY 7, N = 12", "result": "(16.7%)"}, {"measurement": "PGA Scaling 2: MILD, FINE SCALE DOMINATES, patients (%)", "setting": "[1]; Plaque 2, DAY 7, N = 12", "result": "(16.7%)"}, {"measurement": "Physician Static Global Score 1: MINIMAL, patients (%)", "setting": "[1]; Plaque 2, DAY 7, N = 12", "result": "(8.3%)"}, {"measurement": "Physician Static Global Score 2: MILD, patients (%)", "setting": "[1]; Plaque 2, DAY 7, N = 12", "result": "(25.0%)"}, {"measurement": "PGA Erythma 2: LIGHT RED COLOURATION, patients (%)", "setting": "[1]; Plaque 2, FOLLOW-UP, N = 12", "result": "(33.3%)"}, {"measurement": "PGA Induration 1: MINIMAL PLAQUE ELEVATION, =0.25 MM, patients (%)", "setting": "[1]; Plaque 2, FOLLOW-UP, N = 12", "result": "(8.3%)"}, {"measurement": "PGA Induration 2: MILD PLAQUE ELEVATION, =0.5 MM, patients (%)", "setting": "[1]; Plaque 2, FOLLOW-UP, N = 12", "result": "(25.0%)"}, {"measurement": "PGA Scaling 1: MINIMAL, OCCASIONAL FINE SCALE OVER LESS THAN 5% OF THE LESION, patients (%)", "setting": "[1]; Plaque 2, FOLLOW-UP, N = 12", "result": "(8.3%)"}, {"measurement": "PGA Scaling 2: MILD, FINE SCALE DOMINATES, patients (%)", "setting": "[1]; Plaque 2, FOLLOW-UP, N = 12", "result": "(25.0%)"}, {"measurement": "Physician Static Global Score 2: MILD, patients (%)", "setting": "[1]; Plaque 2, FOLLOW-UP, N = 12", "result": "(33.3%)"}, {"measurement": "PGA Erythma 2: LIGHT RED COLOURATION, patients (%)", "setting": "[1]; Plaque 2, SCREENING, N = 12", "result": "(33.3%)"}, {"measurement": "PGA Erythma 3: MODERATE RED COLOURATION, patients (%)", "setting": "[1]; Plaque 2, SCREENING, N = 12", "result": "(25.0%)"}, {"measurement": "PGA Induration 1: MINIMAL PLAQUE ELEVATION, =0.25 MM, patients (%)", "setting": "[1]; Plaque 2, SCREENING, N = 12", "result": "(8.3%)"}, {"measurement": "PGA Induration 2: MILD PLAQUE ELEVATION, =0.5 MM, patients (%)", "setting": "[1]; Plaque 2, SCREENING, N = 12", "result": "(33.3%)"}, {"measurement": "PGA Induration 3: MODERATE PLAQUE ELEVATION, =0.75 MM, patients (%)", "setting": "[1]; Plaque 2, SCREENING, N = 12", "result": "(8.3%)"}, {"measurement": "PGA Induration 4: MARKED PLAQUE ELEVATION, =1 MM, patients (%)", "setting": "[1]; Plaque 2, SCREENING, N = 12", "result": "(8.3%)"}, {"measurement": "PGA Scaling 2: MILD, FINE SCALE DOMINATES, patients (%)", "setting": "[1]; Plaque 2, SCREENING, N = 12", "result": "(16.7%)"}, {"measurement": "PGA Scaling 3: MODERATE, COARSE SCALE PREDOMINATES, patients (%)", "setting": "[1]; Plaque 2, SCREENING, N = 12", "result": "(33.3%)"}, {"measurement": "PGA Scaling 4: MARKED, THICK, NON-TENACIOUS SCALE DOMINATES, patients (%)", "setting": "[1]; Plaque 2, SCREENING, N = 12", "result": "(8.3%)"}, {"measurement": "Physician Static Global Score 2: MILD, patients (%)", "setting": "[1]; Plaque 2, SCREENING, N = 12", "result": "(33.3%)"}, {"measurement": "Physician Static Global Score 3: MODERATE, patients (%)", "setting": "[1]; Plaque 2, SCREENING, N = 12", "result": "(16.7%)"}, {"measurement": "Physician Static Global Score 4: MARKED, patients (%)", "setting": "[1]; Plaque 2, SCREENING, N = 12", "result": "(8.3%)"}, {"measurement": "PGA Erythma 2: LIGHT RED COLOURATION, patients (%)", "setting": "[1]; Plaque 3, DAY 1, N = 12", "result": "(16.7%)"}, {"measurement": "PGA Induration 2: MILD PLAQUE ELEVATION, =0.5 MM, patients (%)", "setting": "[1]; Plaque 3, DAY 1, N = 12", "result": "(8.3%)"}, {"measurement": "PGA Induration 3: MODERATE PLAQUE ELEVATION, =0.75 MM, patients (%)", "setting": "[1]; Plaque 3, DAY 1, N = 12", "result": "(8.3%)"}, {"measurement": "PGA Scaling 2: MILD, FINE SCALE DOMINATES, patients (%)", "setting": "[1]; Plaque 3, DAY 1, N = 12", "result": "(8.3%)"}, {"measurement": "PGA Scaling 4: MARKED, THICK, NON-TENACIOUS SCALE DOMINATES, patients (%)", "setting": "[1]; Plaque 3, DAY 1, N = 12", "result": "(8.3%)"}, {"measurement": "Physician Static Global Score 2: MILD, patients (%)", "setting": "[1]; Plaque 3, DAY 1, N = 12", "result": "(8.3%)"}, {"measurement": "Physician Static Global Score 3: MODERATE, patients (%)", "setting": "[1]; Plaque 3, DAY 1, N = 12", "result": "(8.3%)"}, {"measurement": "PGA Erythma 2: LIGHT RED COLOURATION, patients (%)", "setting": "[1]; Plaque 3, DAY 7, N = 12", "result": "(8.3%)"}, {"measurement": "PGA Erythma 3: MODERATE RED COLOURATION, patients (%)", "setting": "[1]; Plaque 3, DAY 7, N = 12", "result": "(8.3%)"}, {"measurement": "PGA Induration 1: MINIMAL PLAQUE ELEVATION, =0.25 MM, patients (%)", "setting": "[1]; Plaque 3, DAY 7, N = 12", "result": "(16.7%)"}, {"measurement": "PGA Scaling 2: MILD, FINE SCALE DOMINATES, patients (%)", "setting": "[1]; Plaque 3, DAY 7, N = 12", "result": "(16.7%)"}, {"measurement": "Physician Static Global Score 2: MILD, patients (%)", "setting": "[1]; Plaque 3, DAY 7, N = 12", "result": "(16.7%)"}, {"measurement": "PGA Erythma 2: LIGHT RED COLOURATION, patients (%)", "setting": "[1]; Plaque 3, FOLLOW-UP, N = 12", "result": "(16.7%)"}, {"measurement": "PGA Induration 1: MINIMAL PLAQUE ELEVATION, =0.25 MM, patients (%)", "setting": "[1]; Plaque 3, FOLLOW-UP, N = 12", "result": "(8.3%)"}, {"measurement": "PGA Induration 2: MILD PLAQUE ELEVATION, =0.5 MM, patients (%)", "setting": "[1]; Plaque 3, FOLLOW-UP, N = 12", "result": "(8.3%)"}, {"measurement": "PGA Scaling 2: MILD, FINE SCALE DOMINATES, patients (%)", "setting": "[1]; Plaque 3, FOLLOW-UP, N = 12", "result": "(16.7%)"}, {"measurement": "Physician Static Global Score 2: MILD, patients (%)", "setting": "[1]; Plaque 3, FOLLOW-UP, N = 12", "result": "(16.7%)"}, {"measurement": "PGA Erythma 2: LIGHT RED COLOURATION, patients (%)", "setting": "[1]; Plaque 3, SCREENING, N = 12", "result": "(8.3%)"}, {"measurement": "PGA Erythma 3: MODERATE RED COLOURATION, patients (%)", "setting": "[1]; Plaque 3, SCREENING, N = 12", "result": "(16.7%)"}, {"measurement": "PGA Induration 2: MILD PLAQUE ELEVATION, =0.5 MM, patients (%)", "setting": "[1]; Plaque 3, SCREENING, N = 12", "result": "(8.3%)"}, {"measurement": "PGA Induration 3: MODERATE PLAQUE ELEVATION, =0.75 MM, patients (%)", "setting": "[1]; Plaque 3, SCREENING, N = 12", "result": "(8.3%)"}, {"measurement": "PGA Induration 4: MARKED PLAQUE ELEVATION, =1 MM, patients (%)", "setting": "[1]; Plaque 3, SCREENING, N = 12", "result": "(8.3%)"}, {"measurement": "PGA Scaling 3: MODERATE, COARSE SCALE PREDOMINATES, patients (%)", "setting": "[1]; Plaque 3, SCREENING, N = 12", "result": "(16.7%)"}, {"measurement": "PGA Scaling 4: MARKED, THICK, NON-TENACIOUS SCALE DOMINATES, patients (%)", "setting": "[1]; Plaque 3, SCREENING, N = 12", "result": "(8.3%)"}, {"measurement": "Physician Static Global Score 2: MILD, patients (%)", "setting": "[1]; Plaque 3, SCREENING, N = 12", "result": "(8.3%)"}, {"measurement": "Physician Static Global Score 3: MODERATE, patients (%)", "setting": "[1]; Plaque 3, SCREENING, N = 12", "result": "(8.3%)"}, {"measurement": "Physician Static Global Score 4: MARKED, patients (%)", "setting": "[1]; Plaque 3, SCREENING, N = 12", "result": "(8.3%)"}, {"measurement": "Inhibition of TrkA kinase", "setting": "TrkA kinase", "result": "inhibitor of TrkA kinase at nanomolar levels"}, {"measurement": "Inhibition of human keratinocyte proliferation in vitro", "setting": "human keratinocyte", "result": "clear inhibitory activity"}]}]}
